Results taken from patent US20240052079A1 (OREGON HEALTH & SCIENCE UNIVERSITY, priority 2021, published 2024).
Like-named read-outs stand apart in the source and are kept apart here.

Assays:
[1] = test system: odontoblast-like cell line (OD-21); experiment: Cytotoxicity (MTT) assay, OD-21 cells; conditions: for IC50: read-out: IC50 OD-21; for cell viability, comparison between monomers: OD-21, at 10 and 5 mM
Procedure: (§1) For the cytotoxicity assay, two cell types were tested—odontoblast-like cell line (OD-21) and human dental pulp stem cells (hDPSC) (cat #PT5025, Lonza). […] Cells were kept in an incubator at 37° C., under humidified atmosphere with 5% CO 2 for 2-3 days until confluence was reached. Next, cells were washed with Dulbecco's phosphate buffered saline solution (PBS—Thermo Fisher Scientific) and detached from the culture flasks using 0.05% trypsin/0.02% EDTA (Sigma). Cells were counted using a hemocytometer, then 10,000 cells per well were seeded in 96-well plates for 24 hours (n=6).
(§2) From these stocks, six different concentrated solutions (0.05, 0.1, 0.5, 1, 5 and 10 mM) were prepared in cell culture medium (DMEM for OD-21 and α-MEM for DPSC) and 100 μl per well was used to incubate the cells.
(§3) Next, 200 μl of DMSO was added to each well, plates were gently agitated and the optical density was read at 570 nm and 630 nm in a spectrophotometer (Epoch Microplate Spectrophotometer, BioTek Instruments Inc, Winooski, VT, USA). OD-21 and DPSCs cultured in the medium free from the monomers were used as negative controls. Additionally, since monomer fluorescence could affect the readings, 10 mM samples of each tested monomer were incubated without cells and their absorbance measured to provide a second control (i.e. medium control). The percentage of cell viability was calculated according to the equations:
(§4) ODcells=(OD570 exper−OD630 exper)−(OD570 med contr−OD630 med contr) Equation (3)
(§5) where: ODcell is the absorbance of the remaining cells after exposure; ODexper is the absorbance of the experimental specimens at 570 nm and 630 nm; ODmed contr is the absorbance of the 10 mM solution of each monomer without cells at 570 nm and 630 nm.
(§6) where: CV (%) is percentage of cell viability in relation to the negative control (cells+medium free from the monomers); ODcells neg contr is the cells absorbance of the negative control; ODcells exper is the cells absorbance of the experimental samples.
(§7) The half maximal inhibitory concentration (IC50) of each tested monomer was determined based on the plots of cell inhibition (%) as a function of the monomers concentration (mM) using GraphPad software.

[2] = test system: human dental pulp stem cells (hDPSC); experiment: Cytotoxicity (MTT) assay, hDPSC; conditions: for IC50: read-out: IC50 DPSC; for biocompatibility compared with methacrylates: DPSC
Procedure: as §1, §2, §3, §4, §5, §6, §7

[3] = Hydrolytic degradation kinetics of neat monomers by 1H NMR; assay type: physicochemical; conditions: for Percent remaining monomer: 50 mM monomer, aqueous pH=1, 37° C.; for final degradation percentage: over one month, acidic aqueous conditions (pH=1); for half-life at 50 mM: fit to exponential decay curves, pH=1, read-out: monomer half-life (converted)
Procedure: Neat monomers were subject to the hydrolytic degradation kinetics assay. An aqueous solution (pH=1) was prepared using HPLC grade water and adjusted using 1.0 M HCI. A 50 mM solution of each monomer (n=3) was prepared using 1.0 mL of the acidic aqueous solution. A capillary tube was filled with a 50 mM solution of tetramethylammonium bromide dissolved in D2O and flame sealed. The capillary tube was placed at the bottom on the NMR tube to allow the “locking on” of the instrument and to act as an internal standard. ^1H NMR spectra were obtained using a water suppression by excitation sculpting experiment. After the initial reading, the NMR tubes were flame sealed and incubated at 37° C. During the first week and after 12, 19, and 30 days, the samples were removed from incubation to obtain water suppressed ^1H NMR spectra. To determine the amount of monomer degradation, spectra were first aligned using the ITSD singlet peak and then an integration region unique to a monomer vinyl proton and an integration region unique to a degradation product (methacrylic or acrylic acid) vinyl proton were used to calculate the ratio of monomer to degradation product. […] Additional integration regions on either side of the vinyl region were used to determine the average amount of noise in each spectra. Degradation product values with a signal to noise ratio of less than 10 were considered to show no measurable amount of degradation.

[4] = Cytotoxicity (MTT) assay, OD-21 cells; conditions: mouse
Procedure: as §1, §2, §3, §4, §5, §6, §7

[5] = Partition coefficient (logP); assay type: physicochemical; conditions: values not given; source of logP not stated
Source text: When stored dry, all materials had flexural strengths and elastic moduli that were statistically similar to the control. […] […]. The logP determines the likelihood of a compound to partition into water or octanol, with the most hydrophilic compounds presenting lower logP values. Amides are in general more hydrophilic than methacrylates because of the […] of the nitrogen atom in the amide compared to the oxygen in the methacrylate. In addition, the presence of a lone pair of electrons on the nitrogen leads to stabilization of the carbon-nitrogen bond by resonance with the carbonyl. The oxygen in the amide, in turn, assumes a partial negative charge (δ−), making it more prone to function as a hydrogen-bond acceptor. Conversely, the hydrogen of the N-H dipole is partially positively charged (δ+), which renders it a hydrogen-bond donor.

[6] = neat monomer, 24 hours exposure, MTT

Row | Compound | IC50 [1, 6] [mM] | IC50 [2, 6] [mM] | Percent remaining monomer ([3]; day 0) [%] | Percent remaining monomer ([3]; day 1) [%] | Percent remaining monomer ([3]; day 2) [%] | Percent remaining monomer ([3]; day 3) [%] | Percent remaining monomer ([3]; day 4) [%] | Percent remaining monomer ([3]; day 5) [%] | Percent remaining monomer ([3]; day 6) [%] | Percent remaining monomer ([3]; day 7) [%] | Percent remaining monomer ([3]; day 12) [%] | Percent remaining monomer ([3]; day 19) [%] | Percent remaining monomer ([3]; day 30) [%] | final degradation percentage [3] [%] | IC50 ([1]; Mus musculus, 24 h) [mM] | cell viability, comparison between monomers [1] | IC50 ([2]; Homo sapiens, 24 h) [mM] | half-life at 50 mM [3] [days] | also measured
1 | urethane dimethacrylate [UDMA, reference compound] | 7.94 | 10.3 |  |  |  |  |  |  |  |  |  |  |  |  |  |  |  |  | 
2 | C=CC(=O)N(C)CCCN(C)CCCN(C)C(=O)C=C |  |  | 100.0 ± 0.0 | 99.8 ± 0.01 | 100.0 ± 0.0 | 100.0 ± 0.0 | 100.0 ± 0.0 | 99.7 ± 0.01 | 100.0 ± 0.0 | 100.0 ± 0.0 | 100.0 ± 0.0 | 99.7 ± 0.3 | 98.7 ± 1.3 | 1.27 | 4.75 | the lowest cell viability | 0.54 |  | viability at 24 h, 5 mM [4]: 24%; viability at 24 h, 10 mM [4]: 12%; biocompatibility compared with methacrylates ([2]; 5 mM): less biocompatible than the tested methacrylates
3 | C=CC(=O)NN1CCCN(NC(=O)C=C)CC1 [BAADA, N,N′-bis(acrylamido) 1,4-diazepane] |  |  | 100.0 ± 0.0 | 100.0 ± 0.0 | 100.0 ± 0.0 | 100.0 ± 0.0 | 99.8 ± 0.2 |  | 100.0 ± 0.0 |  | 99.6 ± 0.4 | 92.3 ± 0.7 | 98.9 ± 1.2 | 1.13 | 9.98 |  | 3.65 |  | 
4 | C=CC(=O)N(C)CCN(CCN(C)C(=O)C=C)CCN(C)C(=O)C=C |  |  | 100.0 ± 0.0 | 99.8 ± 0.2 | 99.8 ± 0.2 | 99.3 ± 0.7 | 99.2 ± 0.9 | 99.1 ± 0.7 | 99.0 ± 1.0 | 98.7 ± 1.3 |  | 96.7 ± 1.8 | 93.7 ± 0.7 | 6.29 | 8.02 |  | 1.07 | 350 | biocompatibility compared with methacrylates ([2]; 0.5 mM): less biocompatible than the tested methacrylates; logP, ranking among tested monomers [5]: lower logP
5 | C=C(C)C(=O)OCCO [HEMA, 2-hydroxyethyl methacrylate, reference compound] |  |  | 99.2 ± 0.6 | 93.1 ± 0.04 | 87.6 ± 0.02 | 81.3 ± 0.02 | 76.5 ± 0.01 | 71.3 ± 0.02 | 66.1 ± 0.02 | 61.9 ± 0.01 | 43.1 ± 0.02 | 25.2 ± 0.02 | 10.6 ± 0.1 | 89.38 | 15.4 | the highest | 6.87 | 9.5 | 
6 | N,N-Diethyl-1,3-bis(acrylamido)propane [DEBAAP, reference compound] | 7.11 | 8.43 |  |  |  |  |  |  |  |  |  |  |  |  |  |  |  |  | 
